Paper PMC3638593, “1,4-dihydroxy-2-naphthoic Acid Induces Apoptosis in Human Keratinocyte: Potential Application for Psoriasis Treatment” (Evidence-based Complementary and Alternative Medicine : eCAM, 2013)
Several values for one entry are separate records, joined by “and”; a condition that tells them apart may be missing. Equal values may be shown once. Read-outs that look alike come from different tables or passages of the source. * marks the point of attachment. Cbz = O=C(OCc1ccccc1)*; CH2F = FC*

Key:
Assay type in all cases: cell-based, human
HaCaT cells [1] = assay: Proliferation assay (sulphorhodamine B) on HaCaT; conditions: Homo sapiens, read-out: IC50 on growth
Description: (§1) The spontaneously immortalized human epidermal keratinocyte HaCaT cells were purchased from China Centre for Type Culture Collection, Wuhan, China. The human foreskin fibroblast Hs-68 cells were purchased from the American Type Culture Collection (Manassas, VA, USA). The human undifferentiated keratinocyte NCTC 2544 cells were provided by Interlab Cell Line Collection (Genoa, Italy) and the immortalized human epidermal melanocyte PIG1 cells were a gift from Dr Caroline Le Poole (Loyola University Chicago, Maywood, IL, USA). HaCaT and Hs-68 cells were maintained in DMEM, NCTC 2544 in RPMI 1640 and PIG1 cells in Medium 254 with Human Melanocyte Growth Supplement-2, respectively. All cells were cultured in complete medium containing 10% FBS, 100 μg/mL of streptomycin, and 100 U/mL of penicillin (Gibco Laboratories) at 37°C in a humidified atmosphere of 5% CO2. Cell culture experiments were carried out at 60–80% confluent.
(§2) The ethyl acetate extract (EA) of Rubia cordifolia L. was isolated as described. 1,4-dihydroxy-2-naphthoic acid (98%), dithranol (≥90%), and EA were dissolved in DMSO as stock. All cells were seeded and treated with various concentrations of DHNA, dithranol or EA. After treatment, cells were fixed with cold 50% trichloroacetic acid and incubated 1 h at 4°C. Cell was then washed with deionized water, air-dried, and stained with 0.4% (w/v) sulphorhodamine B for 30 min at room temperature. Unincorporated dye was removed with 1% acetic acid wash and the cell was again air-dried. Incorporated dye was then solubilized in 10 mM Tris base and absorbance was measured at 565/690 nm using a Sunrise microplate spectrophotometer (Tecan, Switzerland). IC50 were determined using GraphPad Prism 5.0 (GraphPad Software, San Diego, CA, USA).

NCTC 2544 cells = assay: Proliferation assay (sulphorhodamine B) on NCTC 2544; conditions: Homo sapiens, read-out: IC50 on growth
Description: as §1, §2

[2] = system: IL-1α release from NCTC 2544 cells; assay: IL-1α release assay (ELISA)
Protocol: NCTC 2544 cells were seeded and treated with various concentrations of DHNA or dithranol for 72 h. After incubation, the microplate was centrifuged and conditioned medium was collected to determine the extracellular IL-1α (IL-1α release) using an IL-1α ELISA kit (Diaclone Research, France). All other steps were then according to the manufacturer's protocol. Results were expressed in pg/mL.

HaCaT cells [3] = assay: Annexin V/propidium iodide staining, flow cytometry; conditions: 40 μM pretreatment 1 h, then DHNA 24 h
Protocol: After DHNA treatment, HaCaT cells were resuspended in annexin V binding buffer (10 mM HEPES, 140 mM NaCl, and 2.5 mM CaCl2, pH 7.4) and then incubated with FITC-conjugated annexin V (Biosource International, Inc., USA), and 0.5 μg/mL propidium iodide (PI) for 15 min at room temperature in the dark. Cells were analyzed on a FACSCanto flow cytometer (BD Biosciences, San Jose, CA, USA) immediately and then analyzed using WinMDI 2.9 (developed by Dr. J. Trotter, Scripps Institute, La Jolla, CA, USA). The total number of early (FITC+/PI−) and late (FITC+/PI+) apoptotic cells was assessed. In another experiment, HaCaT cells were preincubated with 40 μM pan-caspase inhibitor Z-VAD-FMK (BD Pharmingen, San Diego, CA, USA) for 1 h before exposure to DHNA.

`O=C1c2c(O)cccc2Cc2cccc(O)c21` [Dithranol, dithranol, reference compound] was tested, and the IC50 (HaCaT cells [1]; incubation 48 h) was 24.8 µM and 5.6 µg/mL, the IC50 (HaCaT cells [1]; incubation 72 h) was 9.39 µM and 2.12 µg/mL and the IC50 (NCTC 2544 cells; NCTC 2544, incubation 48 h) was 6.21 µM and 1.41 µg/mL. The IC50 (NCTC 2544 cells; NCTC 2544, incubation 72 h) was 3.81 µM and 0.86 µg/mL, the “IL-1α release at concentrations below IC50 on NCTC 2544” value ([2]; 2 to 3 μM or 0.45 to 0.68 μg/mL, 72 h) was “readily induced the release of this cytokine” and the “IL-1α release versus vehicle control” value ([2]; 2 to 8 μM (0.45 to 1.81 μg/mL), 72 h) was “induced significant release of this cytokine at all concentrations tested”. For the same compound, the “concentration at which IL-1α release is significantly induced” value ([2]; NCTC 2544, 72 h, versus vehicle control) was 2 μM and 0.45 μg/mL.
With “Cbz-Val-Ala-Asp-CH2F [reference compound]” the “effect of pan-caspase inhibitor on DHNA-induced apoptosis” value (HaCaT cells [3]) was “partially blocked”.
